Measurements reported in ChEMBL document CHEMBL3044794, “Antifungal activity of some tetranortriterpenoids” (2000).

Assays:
[1] = test system: Puccinia arachidis; assay: Antifungal activity against Puccinia arachidis in ground nut assessed as rust pustule count at 10 ug/cm'2 measured after 12 days from inoculation; format: functional
[2] = test system: Puccinia arachidis; assay: Antifungal activity against Puccinia arachidis in ground nut assessed as rust pustule count at 1 ug/cm'2 measured after 12 days from inoculation (reference value: 22.73 %); format: functional

## CC(=O)O[C@@H]1C[C@H]2C(C)(C)C(=O)C=C[C@]2(C)[C@H]2CC[C@]3(C)C(=CC(=O)[C@H]3c3ccoc3)[C@@]21C [AZADIRADIONE]
[1]
  inhibition (INH): 76.9%
[2]
  inhibition (INH): 75.7%

## CC1(C)C(=O)C=C[C@@]2(C)C1=C(O)C(=O)[C@]1(C)[C@@H]2CC[C@@]2(C)[C@H](c3ccoc3)C[C@H]3O[C@]321 [CEDRELONE]
[1]
  inhibition (INH): 93.4%
[2]
  inhibition (INH): 98.4%

## CC(=O)OC1=C2C(C)(C)C(=O)CC[C@]2(C)[C@H]2CC[C@@]3(C)[C@H](c4ccoc4)C[C@H]4O[C@]43[C@]2(C)C1=O [DIHYDROCEDRELONEDIACETATE]
[1]
  inhibition (INH): 87%
[2]
  inhibition (INH): 77.6%

## CC1(C)C(=O)CC[C@@]2(C)C1=C(O)C(=O)[C@]1(C)[C@@H]2CC[C@@]2(C)[C@H](c3ccoc3)C[C@H]3O[C@]321 [DIHYDROCEDRELONE]
[1]
  inhibition (INH): 66.7%
[2]
  inhibition (INH): 42.6%

## CC1(C)C(=O)C=C[C@@]2(C)C1C(O)(C(=O)O)[C@@]1(C)C[C@@]34O[C@@H]3C[C@@H](c3ccoc3)C4C[C@H]21 (stereo partly drawn) [ISOCEDRELONIC ACID]
[1]
  inhibition (INH): 91.4%
[2]
  inhibition (INH): 36.9%

## CC1(C)O[C@H]2CC(=O)OC[C@]23[C@H]2CC[C@@]4(C)[C@H](c5ccoc5)OC(=O)[C@H]5O[C@]54[C@]2(C)C(=O)C[C@@H]13 [LIMONIN]
[1]
  inhibition (INH): -15.7%
[2]
  inhibition (INH): 67.7%

## CC1(C)O[C@H]2CC(=O)OC[C@]23[C@H]2CC[C@@]4(C)[C@@H](c5ccoc5)OC(=O)[C@H]5O[C@]54[C@]2(C)[C@H](O)C[C@@H]13 [LIMONOL]
[1]
  inhibition (INH): 62.3%
[2]
  inhibition (INH): 37.9%

## COC(=O)C1(O)C2C(C)(C)C(=O)C=C[C@]2(C)[C@H]2CC3[C@H](c4ccoc4)C[C@H]4O[C@@]34C[C@@]21C (stereo partly drawn) [METHYL ISOCEDRELONATE]
[1]
  inhibition (INH): 2.3%
[2]
  inhibition (INH): 7.6%

## CC(=O)O[C@H](CC(=O)O)[C@]1(C)[C@H]2CC[C@@]3(C)[C@@H](c4ccoc4)OC(=O)[C@H]4O[C@]43[C@]2(C)C(=O)C[C@H]1C(C)(C)O [NOMILINIC ACID]
[1]
  inhibition (INH): 34.2%
[2]
  inhibition (INH): 28.5%
